Experimental data as given in US20220259302A1, “METHODS AND COMPOSITIONS FOR THE IMPROVEMENT OF LYSOSOMAL FUNCTION AND TREATMENT OF NEURODEGENERATIVE DISEASE” (VANDERBILT UNIVERSITY, priority 2017, published 2022).
“Also recorded” adds a separate entry of the source.

Experiments:
[1] = biological target: lysosomal v-ATPase (Homo sapiens, UniProt P27449); conditions: direct inhibition of lysosome acidification; cited from earlier work
[2] = tested on: mouse cortical cultures; assay: lysosome degradation of proteins in mouse cortical cultures exposed to IL-6; assay type: cell-based
Description: Also, IL-6 can induce expression of inflammatory mediators, including TNFα, IL-6, IL-1β, Nox2 and Nox4, through both canonical pTyr-Stat3 transcription, and through noncanonical Stat3 NFκB transcription. Here, primary mouse cultures can be prepared on coverslip dishes as described and treated with IL-6 (10 ng/ml and 100 ng/ml) or a vehicle controls (media), daily for 4 days. Bafilomycin (100 nM) can be included in some dishes as a positive control for direct v-ATPase inhibition. Cultures can be fixed with 4% paraformaldehyde (PFA), and immunostained. Based on the data, accumulation of large lamp1 and p62-positive lysosomes in IL-6 and BAF treated cells can be observed. To then assess the role of redox effects on the v-ATPase, cultures can be co-treated with one of three antioxidants, TEMPOL (general radical scavenging), the C3 compound (catalytic superoxide dismutase, to reduce Nox-derived superoxide, regardless of isoform(s) which are contributing), and N-acetyl cysteine (to increase glutathione levels). When the v-ATPase is inhibited through its redox site, antioxidant treatment can prevent accumulation of undigested contents (p62, lamp1), and prevent enlargement of lysosomes. […]

[3] = tested on: Nox2, Nox4 and p22phox; assay: Nox induction in brain of mice injected with IL-6 (qRT-PCR, Western blot, immunostaining); assay type: in vivo, mouse; conditions: 4 month and 24 month-old C57Bl/6 mice, IL-6 5 μg/kg on two consecutive days
Description: These are the first data showing that inhibiting Nox activity can improve lysosome function in brain in vivo. […] Based on the observation herein that IL-6 is responsible for Nox2 induction in aging brain, and thus here, it is determined whether IL-6 mediates lysosome dysfunction. […] have a targeted deletion of Stat3 in neurons, and pharmacological inhibition of Nox-derived superoxide production can be used to test each of these possibilities. […] This increase occurred not only in microglia, but cortical and hippocampal neurons, and in synaptosomes. To confirm anti-Nox2 Ab specificity, slices and tissue from gp91phox−/− (Nox2−/−) mice were always included as controls.

[4] = tested on: p62-positive aggregates in hippocampus; assay: p62-positive aggregates in hippocampus of aging mice after long-term treatment in drinking water; assay type: in vivo, mouse
Description: Female C57BL6 mice received apocynin (50 mg/kg) or C3 (1 mg/kg/day) in their water from 12-17 mos of age, then perfused. Fixed brain were sectioned, and immunostained for p62. Confocal images were analyzed for 6 hippocampi/three sections per mouse, 4 mice per group. To quantify the p62-containing aggregates, aggregates were individually circled in the depicted region by a blinded investigator, and aggregate areas measured using ImageJ. Areas covered by aggregates, and number of clusters, are shown. Mean±SEM, *p<0.05, ***p<0.001, Mann-Whitney Rank Sum test. Animal studies were approved by the Animal Care Program at the University of California, San Diego, and Vanderbilt University Medical Center and are in accordance with the PHS Guide for the Care and Use of Laboratory Animals, USDA Regulations, and the AVMA Panel on Euthanasia. Young (3 to 5 month) and old (17 to 27 month) C57BL/6 mice, Tam-Thy1-YFP-Crc, tdTomato or 24 month old GFAP/GFP transgenic mice (JAX, 010835) were used for experiments. Lines which have the Tam-Thy1-YFP-Cre express both the Cre recombinase and YFP under control of the Thy1 promoter, which drives expression in a majority of hippocampal and cortical excitatory neurons, but not inhibitory neurons. Tam-Thy1-YFP-Cre:Stat3flox/flox (TF) mice have been generated, and have also been crossed with the Rosa26-tdTomato reporter mouse line to produce Tam-Thy1-YFP-Cre:Stat3flox/flox:tdTom (TFTD) mice. These reporter mice will express tdTom fluorescence in response to tamoxifen. […] The sections were kept in 30% sucrose, 30% ethylene glycol, and 1% PVP-40 at −20° C. until they were ready to be processed for immunostaining. […] With HRP-conjugated secondary antibodies, fluorescence was developed with fluorescein or cyanine 3 TSA amplification systems. […] Images were then analyzed and processed using Metamorph or Fiji software. To quantify the clusters of p62-containing aggregates, images were taken for 6 hippocampal regions from three sections per mouse, with 4 mice for each group. […]

[5] = tested on: lamp1-positive lysosomes in neurons; assay: intracellular lysosome size in neurons of aged mice (lamp1 and CatD immunostaining); assay type: in vivo, mouse; conditions: aged mice treated with apocynin compared to water
Text: Brain sections from 5 month and 20 month old female mice were immunostained with antibodies against lamp1 and parvalbumin (PV), chosen to allow lysosomes in individual neurons to be analyzed. In old versus young animals, lamp1-labeled lysosomes are larger in both PV neurons as well as surrounding pyramidal neurons. Lysosomes in PV neurons were quantified in 1 μm thick optical sections with ImageJ using Analyze Particles function; n=8 young, n=7 old. *p<0.001, Mann-Whitney Rank Sum test.
Mice were treated with apocynin in drinking water (initial dose 5 mg/kg and then ramping up to 100 mg/kg) beginning at 12 months old for 5 months. […]
An antigen retrieval method was performed on the sections for most antigens by heating in 10 mM citrate buffer (pH 6.0) for 10 minutes at 90° C. […] With HRP-conjugated secondary antibodies, fluorescence was developed with fluorescein or cyanine 3 TSA amplification systems. […]
Images were captured using Zeiss LSM 510 or LSM 810 multiphoton laser confocal microscopes. […] Images were then analyzed and processed using Metamorph or Fiji software. To quantify the clusters of p62-containing aggregates, images were taken for 6 hippocampal regions from three sections per mouse, with 4 mice for each group. Hippocampal regions were divided into different subregions, and p62 clusters were counted. […]

Sequence of lysosomal v-ATPase (P27449 whole entry): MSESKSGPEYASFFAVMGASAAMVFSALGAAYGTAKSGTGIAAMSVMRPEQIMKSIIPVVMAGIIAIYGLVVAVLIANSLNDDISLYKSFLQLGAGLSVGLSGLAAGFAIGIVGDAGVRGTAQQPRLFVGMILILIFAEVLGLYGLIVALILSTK
Sequence of lysosomal v-ATPase (P38606 whole entry partner): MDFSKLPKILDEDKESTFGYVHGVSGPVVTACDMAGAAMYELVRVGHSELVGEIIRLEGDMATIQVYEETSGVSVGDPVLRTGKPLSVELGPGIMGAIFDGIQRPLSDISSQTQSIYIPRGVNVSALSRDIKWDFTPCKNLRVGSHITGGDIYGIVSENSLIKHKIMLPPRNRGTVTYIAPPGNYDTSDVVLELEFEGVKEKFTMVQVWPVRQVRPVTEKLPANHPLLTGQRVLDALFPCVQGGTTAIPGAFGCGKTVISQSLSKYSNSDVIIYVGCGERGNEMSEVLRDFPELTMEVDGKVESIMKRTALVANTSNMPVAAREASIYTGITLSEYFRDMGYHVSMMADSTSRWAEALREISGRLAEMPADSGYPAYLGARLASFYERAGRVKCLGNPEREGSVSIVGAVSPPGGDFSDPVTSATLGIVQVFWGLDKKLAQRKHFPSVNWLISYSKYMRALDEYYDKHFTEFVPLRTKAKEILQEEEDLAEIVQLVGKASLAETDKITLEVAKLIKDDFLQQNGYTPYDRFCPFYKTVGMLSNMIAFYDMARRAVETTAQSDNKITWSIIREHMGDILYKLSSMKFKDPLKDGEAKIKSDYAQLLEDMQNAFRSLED

CO/C1=C\C(C)=C\[C@@H](C)[C@@H](O)[C@@H](C)C/C(C)=C/C=C/[C@H](OC)[C@@H]([C@@H](C)[C@@H](O)[C@H](C)[C@@]2(O)C[C@@H](O)[C@H](C)[C@@H](C(C)C)O2)OC1=O [bafilomycin]
lysosome size [1]: rapidly increases lysosome size within hours

IL-6: inflammatory cytokine interleukin-6
lysosome degradation of proteins, including p62 [2]: impairs lysosome degradation of proteins
induction of Nox2, Nox4 and p22phox in brain [3]: induction of Nox2, Nox4 and p22phox

COc1cc(C(C)=O)ccc1O [apocynin]
cargo clearance ([4]; apocynin 100 mg/kg/day, as in FIG. 5): improved cargo clearance
accumulation of p62 aggregates (number and size of p62-positive aggregates) in hippocampus ([4]; female C57BL6 mice, in drinking water from 12-17 mos of age, apocynin 50 mg/kg/day, C3 1 mg/kg/day): reduction of both the number, and size of p62-positive aggregates; also recorded: reduces hippocampal aggregates; also recorded: lessons the accumulation of p62 aggregates
undegraded lysosome material throughout brain ([4]; mice treated with apocynin (FIG. 5)): robust and highly significant reduction in undegraded lysosome material throughout brain
size of lysosomes in neurons (lamp1 and CatD immunostaining) [5]: significant normalization (reduction) of intracellular lysosome size; also recorded: significantly reduced the size of lysosomes
